Tested on: A II-infused rat
Assay: A II-infused rat model (antihypertensive action)
Assay type: in vivo
Conditions: 3 mg/kg id, average, four hours post-administration, anesthetized ganglion-blocked rats with A II infusion
Experimental: In accordance with their ability to antagonize angiotensin II, the compounds of this invention show antihypertensive action in the following A II-infused rat model. Procedure: Rats are anesthetized with Dial-Urethane (0.60 mL/kg, ip) and the trachea cannulated with PR 240. Either one femoral artery and both femoral veins or the carotid artery and the corresponding jugular vein are cannulated with PE 50. If the jugular vein is cannulated, two cannulas are placed in the one vein. The initial portion of the duodenum (just distal to the stomach) is cannulated with PE 50 via a small midline incision. Arterial pressure and heart rate are measured from the arterial cannula. Ten to 15 min are allowed following surgery for stabilization of arterial pressure. Ganglion blockade is then produced by intravenous administration of mecamylamine at 3 mg/kg (1 mL/kg of a 3 mg/mL solution). Ganglion blockade causes a fall in arterial pressure of about 50 mmHg. Mecamylamine is given every 90 min throughout the remainder of the experiment. An A II infusion is then begun into the other venous cannula at 0.25 µg/kg min (at 9.6 µL/min). The A II infusion returns arterial pressure to or slightly above the control level. Once arterial pressure has stabilized with the A II infusion, baseline values for mean arterial pressure (MAP) and heart rate are taken. […]

## Cc1nc(C)c2c(n1)N(Cc1ccc(-c3ccccc3-c3nnn[nH]3)cc1)C(=O)C2 [Example 1, 2,4-Dimethyl-5,7-dihydro-7-[[2'-(1H-tetrazol-5-yl)[1,1-bi-phenyl]-4-yl]methyl]-6H-pyrrolo[2,3-d]pyrimidin-6-one]
  lowered the A II dependent blood pressure: 41%

Source: patent publication EP0539086B1, “Condensed pyrimidine derivatives and their use as angiotensine II antagonists” (AMERICAN HOME PRODUCTS CORPORATION, priority 1991, dated 1993)
